Measurements from US12274678B2, “Cannabinoids and uses thereof” (TECHNION RESEARCH & DEVELOPMENT FOUNDATION LIMITED, priority 2019, dated 2025).
Where a SMILES comes first, the peptide text is derived from it. [ ]: non-standard residue; d: D form. The star is where a group is joined. Nle = CCCC[C@H](N)C(=O)O; Cbz = O=C(OCc1ccccc1)*

Legend:
Format in all cases: cell-based, human
CCRF-CEM cells = assay: AlamarBlue cell viability assay, CCRF-CEM; details: CBD, CBDV, CF1 separately and in combinations, 24 h
Protocol: (§1) Cells were cultured in 96-well plates. At 100,000 cells/well the media was replaced with RPMI containing 0.5% FBS and different Cannabis extracts. Extracts were added in triplicate at a concentration of 1-5 μg/mL. DMSO was used as the control and applied in the same amount as in the diluted extracts. An alamarBlue® reagent was used to quantitate viability (according to the manufacturer's Instructions). Viability was measured following 24 h of incubation using fluorescence spectrophotometry at excitation and emission wavelengths of 560 and 590 nm, respectively. Viability was calculated as percent reduction between treated and control cells.

MOLT-4 cells = assay: AlamarBlue cell viability assay, MOLT-4; details: CBD, CBDV, CF1 separately and in combinations, 24 h
Protocol: as §1

NICD [1] = assay: Immunoblotting of NICD protein in cells; details: MOLT-4 cells, 3 μg/mL, 24 h
Protocol: (§2) Cell Lysis and Western Blot Analyses
Following treatment, cells were solubilized in radioimmunoprecipitation assay buffer (RIPA) (Sigma-Aldrich, R0278) and the protein concentration in lysates were determined using a Bradford reagent (Sigma-Aldrich, B6916). Equal amounts of protein were resolved by Novex™ 4-20% Tris-Glycine Mini Gels (Thermo Fisher Scientific, XP04200BOX) and electrophoretically transferred to a nitrocellulose membrane (Bio-Rad, 1704159S). Membranes were blocked with TBS 0.1% Tween 20 buffer containing 5% bovine serum albumin (Sigma, A7906) for 1 h. The blots were then incubated overnight at 4° C. with Full Notch1 (Millipure ABS90), from Cell Signaling Technology Notch1 V1744 (4147S), c-Myc (13987), Hes1 (11988), anti-cleaved caspase-3 antibody (9664), Phospho-C-Jun (3270), C-Jun (9165), and β-tubulin (clone D3U1W, 86298) and Chac1 (ab76386) from abcam. This was followed by incubation with horseradish peroxidase-labeled matching secondary antibodies. Immunoreactive bands were detected by Luminata™ HRP substrate (Millipore, WBLUR0500) and visualized using a MicroChemi imager (DNR Bioimaging Systems).

NICD [2] = assay: Western blot of NICD in Molt-4 cells pretreated with proteasome inhibitors, then Extract 12; details: MOLT-4 cells pretreated 1 h (MG132 2.5-7.5 μM; MG101 10 μM), then Extract 12 5 μg/mL 3 h
Protocol: FIG. 14 is a micrograph of a western blot analysis of NICD in Molt-4 cells pretreated with MG132 (proteasome inhibitor; 0, 2.5 μM, 5 μM, 7.5 μM) for 1 h and then treated with vehicle or Extract 12 (5 μg/mL) for 3 h. β-tubulin served as a loading control.
FIG. 15 is a micrograph of western blot analysis of NICD in Molt-4 cells pretreated with MG101 (proteasome inhibitor; 0, 10 μM) for 1 h and then treated with vehicle or Extract 12 (5 μg/mL) for 3 h. β-tubulin served as a loading control.
as §2
Following treatment, cells were solubilized in radioimmunoprecipitation assay buffer (RIPA) (Sigma-Aldrich, R0278) and the protein concentration in lysates were determined using a Bradford reagent (Sigma-Aldrich, B6916). Equal amounts of protein were resolved by Novex™ 4-20% Tris-Glycine Mini Gels (Thermo Fisher Scientific, XP04200BOX) and electrophoretically transferred to a nitrocellulose membrane (Bio-Rad, 1704159S). Membranes were blocked with TBS 0.1% Tween 20 buffer containing 5% bovine serum albumin (Sigma, A7906) for 1 h. […] Immunoreactive bands were detected by Luminata™ HRP substrate (Millipore, WBLUR0500) and visualized using a MicroChemi imager (DNR Bioimaging Systems).

| SMILES | CCRF-CEM cell apoptosis in viability assay of cannabinoids (CCRF-CEM cells) | MOLT-4 cell death / cell apoptosis in viability assay of cannabinoids (MOLT-4 cells) | NICD levels after cannabinoids (NICD [1]) | restoration of NICD protein level by proteasome inhibition (NICD [2]) |
| --- | --- | --- | --- | --- |
| C=C(C)[C@@H]1CCC(C)=C[C@H]1c1c(O)cc(CCCCC)cc1O [CBD, cannabidiol, reference compound] | produced cell apoptosis | produced cell apoptosis | decreasing NICD levels |  |
| CC(C)C[C@@H](C=O)NC(=O)[C@H](CC(C)C)NC(=O)[C@H](CC(C)C)NC(=O)OCc1ccccc1 [MG132] (Cbz-Leu-Leu-Leu-aldehyde) |  |  |  | did not restore |
| CCCC[C@@H](C=O)NC(=O)[C@H](CC(C)C)NC(=O)[C@H](CC(C)C)NC(C)=O [MG101] (Ac-Leu-Leu-[Nle]-aldehyde) |  |  |  | did not restore |
| CCCCCc1cc(O)c(C2C=C(C)CCC2C(C)(C)O)c(O)c1 [CF1, 1,3-Benzenediol, 2-[(1R,6R)-6-(1-hydroxy-1-methylethyl)-3-methyl-2cyclohexen-1-yl]-5-pentyl] | produced cell apoptosis | produced cell apoptosis | decreasing NICD levels |  |
| C=C(C)[C@@H]1CCC(C)=C[C@H]1c1c(O)cc(CCC)cc1O [CBDV, cannabidivarin] | produced cell apoptosis | produced cell apoptosis | decreasing NICD levels |  |
